Reference: ChEMBL document CHEMBL4665624, “Synthesis of 5-(4-(1H-phenanthro[9,10-d]imidazol-2-yl)benzylidene)thiazolidine-2,4-dione as promising DNA and serum albumin-binding agents and evaluation of antitumor activity” (Eur J Med Chem, 2019)

Assays:
CCRF-CEM = assay: Antitumor activity against human CCRF-CEM cells assessed as cell growth inhibition at 10 uM incubated for 48 hrs by sulforhodamine B assay; type: functional; conditions: read-out: GI
HL-60(TB) = assay: Antitumor activity against human HL-60(TB) cells assessed as cell growth inhibition at 10 uM incubated for 48 hrs by sulforhodamine B assay; type: functional; conditions: read-out: GI
K562 = assay: Antitumor activity against human K562 cells assessed as cell growth inhibition at 10 uM incubated for 48 hrs by sulforhodamine B assay; type: functional; conditions: read-out: GI
MOLT-4 = assay: Antitumor activity against human MOLT4 cells assessed as cell growth inhibition at 10 uM incubated for 48 hrs by sulforhodamine B assay; type: functional; conditions: read-out: GI
RPMI-8226 = assay: Antitumor activity against human RPMI8226 cells assessed as cell growth inhibition at 10 uM incubated for 48 hrs by sulforhodamine B assay; type: functional; conditions: read-out: GI
SR = assay: Antitumor activity against human SR cells assessed as cell growth inhibition at 10 uM incubated for 48 hrs by sulforhodamine B assay; type: functional; conditions: read-out: GI
EKVX = assay: Antitumor activity against human EKVX cells assessed as cell growth inhibition at 10 uM incubated for 48 hrs by sulforhodamine B assay; type: functional; conditions: read-out: GI
HOP-92 = assay: Antitumor activity against human HOP92 cells assessed as cell growth inhibition at 10 uM incubated for 48 hrs by sulforhodamine B assay; type: functional; conditions: read-out: GI
NCI-H226 = assay: Antitumor activity against human NCI-H226 assessed as cell growth inhibition at 10 uM incubated for 48 hrs by sulforhodamine B assay; type: functional; conditions: read-out: GI
NCI-H23 = assay: Antitumor activity against human NCI-H23 cells assessed as cell growth inhibition at 10 uM incubated for 48 hrs by sulforhodamine B assay; type: functional; conditions: read-out: GI
NCI-H460 = assay: Antitumor activity against human NCI-H460 assessed as cell growth inhibition at 10 uM incubated for 48 hrs by sulforhodamine B assay; type: functional; conditions: read-out: GI
NCI-H522 = assay: Antitumor activity against human NCI-H522 cells assessed as cell growth inhibition at 10 uM incubated for 48 hrs by sulforhodamine B assay; type: functional; conditions: read-out: GI
COLO 205 = assay: Antitumor activity against human COLO205 cells assessed as cell growth inhibition at 10 uM incubated for 48 hrs by sulforhodamine B assay; type: functional; conditions: read-out: GI
HCC 2998 = assay: Antitumor activity against human HCC2998 cells assessed as cell growth inhibition at 10 uM incubated for 48 hrs by sulforhodamine B assay; type: functional; conditions: read-out: GI
HCT-116 = assay: Antitumor activity against human HCT116 cells assessed as cell growth inhibition at 10 uM incubated for 48 hrs by sulforhodamine B assay; type: functional; conditions: read-out: GI
HCT-15 = assay: Antitumor activity against human HCT15 cells assessed as cell growth inhibition at 10 uM incubated for 48 hrs by sulforhodamine B assay; type: functional; conditions: read-out: GI
HT-29 = assay: Antitumor activity against human HT-29 cells assessed as cell growth inhibition at 10 uM incubated for 48 hrs by sulforhodamine B assay; type: functional; conditions: read-out: GI
KM12 = assay: Antitumor activity against human KM12 cells assessed as cell growth inhibition at 10 uM incubated for 48 hrs by sulforhodamine B assay; type: functional; conditions: read-out: GI
SF-268 = assay: Antitumor activity against human SF268 cells assessed as cell growth inhibition at 10 uM incubated for 48 hrs by sulforhodamine B assay; type: functional; conditions: read-out: GI
SF-295 = assay: Antitumor activity against human SF295 cells assessed as cell growth inhibition at 10 uM incubated for 48 hrs by sulforhodamine B assay; type: functional; conditions: read-out: GI
SNB-19 = assay: Antitumor activity against human SNB-19 cells assessed as cell growth inhibition at 10 uM incubated for 48 hrs by sulforhodamine B assay; type: functional; conditions: read-out: GI
SNB-75 = assay: Antitumor activity against human SNB-75 cells assessed as cell growth inhibition at 10 uM incubated for 48 hrs by sulforhodamine B assay; type: functional; conditions: read-out: GI
U-251 = assay: Antitumor activity against human U251 cells assessed as cell growth inhibition at 10 uM incubated for 48 hrs by sulforhodamine B assay; type: functional; conditions: read-out: GI
LOX IMVI = assay: Antitumor activity against human LOX IMVI cells assessed as cell growth inhibition at 10 uM incubated for 48 hrs by sulforhodamine B assay; type: functional; conditions: read-out: GI
Malme-3M = assay: Antitumor activity against human MALME-3M cells assessed as cell growth inhibition at 10 uM incubated for 48 hrs by sulforhodamine B assay; type: functional; conditions: read-out: GI
M14 = assay: Antitumor activity against human M14 cells assessed as cell growth inhibition at 10 uM incubated for 48 hrs by sulforhodamine B assay; type: functional; conditions: read-out: GI
MDA-MB-435 = assay: Antitumor activity against human MDA-MB-435 cells assessed as cell growth inhibition at 10 uM incubated for 48 hrs by sulforhodamine B assay; type: functional; conditions: read-out: GI
SK-MEL-28 = assay: Antitumor activity against human SK-MEL-28 cells assessed as cell growth inhibition at 10 uM incubated for 48 hrs by sulforhodamine B assay; type: functional; conditions: read-out: GI
UACC-62 = assay: Antitumor activity against human UACC-62 cells assessed as cell growth inhibition at 10 uM incubated for 48 hrs by sulforhodamine B assay; type: functional; conditions: read-out: GI
IGROV-1 = assay: Antitumor activity against human IGROV1 cells assessed as cell growth inhibition at 10 uM incubated for 48 hrs by sulforhodamine B assay; type: functional; conditions: read-out: GI
OVCAR-3 = assay: Antitumor activity against human OVCAR-3 cells assessed as cell growth inhibition at 10 uM incubated for 48 hrs by sulforhodamine B assay; type: functional; conditions: read-out: GI
OVCAR-4 = assay: Antitumor activity against human OVCAR-4 cells assessed as cell growth inhibition at 10 uM incubated for 48 hrs by sulforhodamine B assay; type: functional; conditions: read-out: GI
OVCAR-8 = assay: Antitumor activity against human OVCAR-8 cells assessed as cell growth inhibition at 10 uM incubated for 48 hrs by sulforhodamine B assay; type: functional; conditions: read-out: GI
NCI/ADR-RES = assay: Antitumor activity against human NCI/ADR-RES cells assessed as cell growth inhibition at 10 uM incubated for 48 hrs by sulforhodamine B assay; type: functional; conditions: read-out: GI
SK-OV-3 = assay: Antitumor activity against human SK-OV-3 cells assessed as cell growth inhibition at 10 uM incubated for 48 hrs by sulforhodamine B assay; type: functional; conditions: read-out: GI
786-0 = assay: Antitumor activity against human 786-0 cells assessed as cell growth inhibition at 10 uM incubated for 48 hrs by sulforhodamine B assay; type: functional; conditions: read-out: GI
A498 = assay: Antitumor activity against human A498 cells assessed as cell growth inhibition at 10 uM incubated for 48 hrs by sulforhodamine B assay; type: functional; conditions: read-out: GI
ACHN = assay: Antitumor activity against human ACHN cells assessed as cell growth inhibition at 10 uM incubated for 48 hrs by sulforhodamine B assay; type: functional; conditions: read-out: GI
RXF 393 = assay: Antitumor activity against human RXF 393 cells assessed as cell growth inhibition at 10 uM incubated for 48 hrs by sulforhodamine B assay; type: functional; conditions: read-out: GI
SN12C = assay: Antitumor activity against human SN12C cells assessed as cell growth inhibition at 10 uM incubated for 48 hrs by sulforhodamine B assay; type: functional; conditions: read-out: GI
UO-31 = assay: Antitumor activity against human UO-31 cells assessed as cell growth inhibition at 10 uM incubated for 48 hrs by sulforhodamine B assay; type: functional; conditions: read-out: GI
PC-3 = assay: Antitumor activity against human PC-3 cells assessed as cell growth inhibition at 10 uM incubated for 48 hrs by sulforhodamine B assay; type: functional; conditions: read-out: GI
MCF7 = assay: Antitumor activity against human MCF7 cells assessed as cell growth inhibition at 10 uM incubated for 48 hrs by sulforhodamine B assay; type: functional; conditions: read-out: GI
MDA-MB-231 = assay: Antitumor activity against human MDA-MB-231/ATCC cells assessed as cell growth inhibition at 10 uM incubated for 48 hrs by sulforhodamine B assay; type: functional; conditions: read-out: GI
Hs-578T = assay: Antitumor activity against human HS 578T cells assessed as cell growth inhibition at 10 uM incubated for 48 hrs by sulforhodamine B assay; type: functional; conditions: read-out: GI
BT-549 = assay: Antitumor activity against human BT-549 cells assessed as cell growth inhibition at 10 uM incubated for 48 hrs by sulforhodamine B assay; type: functional; conditions: read-out: GI
MDA-MB-468 = assay: Antitumor activity against human MDA-MB-468 cells assessed as cell growth inhibition at 10 uM incubated for 48 hrs by sulforhodamine B assay; type: functional; conditions: read-out: GI
SW-620 = assay: Antitumor activity against human SW620 cells assessed as cell growth inhibition at 10 uM incubated for 48 hrs by sulforhodamine B assay; conditions: SW-620, 48 h, read-out: GI

CCN(CC)c1ccc(-c2nc3c4ccccc4c4ccccc4c3o2)c(O)c1
inhibition of growth at 10 µM (CCRF-CEM): 41.4% | inhibition of growth at 10 µM (HL-60(TB)): 31.4% | inhibition of growth at 10 µM (K562): 79.7% | inhibition of growth at 10 µM (MOLT-4): 39% | inhibition of growth at 10 µM (RPMI-8226): 44.6% | inhibition of growth at 10 µM (SR): 72.4% | inhibition of growth at 10 µM (EKVX): 20.2% | inhibition of growth at 10 µM (HOP-92): 11% | inhibition of growth at 10 µM (NCI-H226): < 10% | inhibition of growth at 10 µM (NCI-H23): 13.5% | inhibition of growth at 10 µM (NCI-H460): 15% | inhibition of growth at 10 µM (NCI-H522): 19.8% | inhibition of growth at 10 µM (COLO 205): 12.8% | inhibition of growth at 10 µM (HCC 2998): 18.7% | inhibition of growth at 10 µM (HCT-116): 16.6% | inhibition of growth at 10 µM (HCT-15): 65.1% | inhibition of growth at 10 µM (HT-29): 64.3% | inhibition of growth at 10 µM (KM12): 55.6% | inhibition of growth at 10 µM (SF-268): 12% | inhibition of growth at 10 µM (SF-295): < 10% | inhibition of growth at 10 µM (SNB-19): < 10% | inhibition of growth at 10 µM (SNB-75): < 10% | inhibition of growth at 10 µM (U-251): 15.6% | inhibition of growth at 10 µM (LOX IMVI): 75.3% | inhibition of growth at 10 µM (Malme-3M): < 10% | inhibition of growth at 10 µM (M14): 12.4% | inhibition of growth at 10 µM (MDA-MB-435): < 10% | inhibition of growth at 10 µM (SK-MEL-28): < 10% | inhibition of growth at 10 µM (UACC-62): 11.2% | inhibition of growth at 10 µM (IGROV-1): 19.2% | inhibition of growth at 10 µM (OVCAR-3): 10.3% | inhibition of growth at 10 µM (OVCAR-4): < 10% | inhibition of growth at 10 µM (OVCAR-8): 15% | inhibition of growth at 10 µM (NCI/ADR-RES): 11% | inhibition of growth at 10 µM (SK-OV-3): < 10% | inhibition of growth at 10 µM (786-0): 12.2% | inhibition of growth at 10 µM (A498): < 10% | inhibition of growth at 10 µM (ACHN): 23.1% | inhibition of growth at 10 µM (RXF 393): 16.6% | inhibition of growth at 10 µM (SN12C): < 10% | inhibition of growth at 10 µM (UO-31): 35.2% | inhibition of growth at 10 µM (PC-3): 20.3% | inhibition of growth at 10 µM (MCF7): 43.2% | inhibition of growth at 10 µM (MDA-MB-231): 35.2% | inhibition of growth at 10 µM (Hs-578T): 10% | inhibition of growth at 10 µM (BT-549): < 10% | inhibition of growth at 10 µM (MDA-MB-468): 15.8% | inhibition of growth at 10 µM (SW-620): 31.4%
